Laboratory results: patent US20260347355A1, “COMPOUNDS” (Hoffmann-La Roche Inc., priority 2023, published 2026)

Tests used:
CAPS = settings: biologic agents that target IL-1; cited from earlier work
NLRC4 = settings: cited from earlier work
NLRP1 = settings: cited from earlier work
[1] = target: T1, human ether-i-go-go-related gene (hERG) cardiac potassium channel (Homo sapiens, UniProt Q12809); assay: hERG screening assay (automated patch clamp, CHO crelox hERG cells); format: cell-based; settings: SynchroPatch 384, 35-37 °C, 0.1 Hz, read-out: hERG inhibition IC20
T1 construct: whole-cell automated patch clamp, SynchroPatch 384, 35-37 °C
T1 sequence (Q12809 whole entry): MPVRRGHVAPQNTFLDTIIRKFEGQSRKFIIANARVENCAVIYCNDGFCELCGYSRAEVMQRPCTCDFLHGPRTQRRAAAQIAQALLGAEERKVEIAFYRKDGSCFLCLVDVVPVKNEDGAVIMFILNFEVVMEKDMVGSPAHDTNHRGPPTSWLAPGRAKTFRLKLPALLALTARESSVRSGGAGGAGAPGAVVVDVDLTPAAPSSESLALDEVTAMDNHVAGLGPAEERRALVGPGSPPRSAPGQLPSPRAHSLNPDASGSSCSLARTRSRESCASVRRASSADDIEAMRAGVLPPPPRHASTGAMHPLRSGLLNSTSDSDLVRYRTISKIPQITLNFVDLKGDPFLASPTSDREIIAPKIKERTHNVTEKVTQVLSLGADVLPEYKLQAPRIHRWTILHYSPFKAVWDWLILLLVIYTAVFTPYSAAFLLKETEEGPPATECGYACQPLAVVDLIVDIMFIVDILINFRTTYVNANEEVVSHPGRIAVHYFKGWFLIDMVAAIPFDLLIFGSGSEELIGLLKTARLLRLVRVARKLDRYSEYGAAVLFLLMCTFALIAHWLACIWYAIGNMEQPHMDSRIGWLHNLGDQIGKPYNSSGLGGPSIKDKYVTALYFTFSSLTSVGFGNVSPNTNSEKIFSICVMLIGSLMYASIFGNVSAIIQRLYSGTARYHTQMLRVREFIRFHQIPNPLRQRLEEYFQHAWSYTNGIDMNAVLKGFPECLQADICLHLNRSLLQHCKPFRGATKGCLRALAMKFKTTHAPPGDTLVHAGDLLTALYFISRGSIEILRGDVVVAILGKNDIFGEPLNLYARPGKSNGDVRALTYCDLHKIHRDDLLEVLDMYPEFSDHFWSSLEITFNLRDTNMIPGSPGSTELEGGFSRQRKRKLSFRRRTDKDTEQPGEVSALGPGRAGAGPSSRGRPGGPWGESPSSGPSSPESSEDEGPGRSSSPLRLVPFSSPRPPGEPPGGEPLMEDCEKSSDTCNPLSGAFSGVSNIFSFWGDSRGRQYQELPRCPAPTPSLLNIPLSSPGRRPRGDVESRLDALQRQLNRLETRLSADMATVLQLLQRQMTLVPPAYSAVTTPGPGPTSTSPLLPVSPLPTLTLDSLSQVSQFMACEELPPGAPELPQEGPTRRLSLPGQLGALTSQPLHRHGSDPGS
Description: In the drug development process of small molecules, one of the most frequent adverse side effects, leading to the failure of drugs, is the cardiac arrhythmias. Such failure is often related to the capacity of the drug to inhibit the human ether-i-go-go-related gene (hERG) cardiac potassium channel. Having no or low inhibition of the hERG cardiac potassium channel is therefore considered as beneficial.
The CHO crelox hERG cell line (ATCC reference Nr. PTA-6812, female Chinese hamster cells) was generated and validated at Roche. Ready-to-use frozen instant CHO-hERG cells were cryopreserved at Evotec (Germany) and used directly in the experiments.
The extracellular solution contains (in mM): NaCl 150; KCl 4; CaCl2 1; MgCl2 1; HEPES 10; pH 7.2-7.4 with NaOH, osmolarity 290-330 mOsm. […]
The effects of a compound on hERG K+-currents parameters will be evaluated at 2 concentrations in at least 4 cells.
The hERG test is performed using automated patch clamp system SynchroPatch® 384 (Nanion Technologies GmbH, Germany). K+ currents are measured with the patch-voltage-clamp technique in the whole-cell configuration at 35-37 °C. […]
The amplitudes of IKhERG were recorded in each concentration of drug and they were compared to the vehicle control values (taken as 100%) to define fractional blocks. […]

NLRP3 [2] = target: T2, NLRP3 (Homo sapiens, UniProt Q96P20); assay: THP-1 cells pyroptosis assay (LPS primed, nigericin stimulated, resazurin readout); format: cell-based; parameters: endogenous in cells; host or cells: THP-1 cells (ATCC TIB-202); settings: THP-1 pyroptosis Assay IC50, THP-1 cells, 1 μg/ml LPS, 5 μM nigericin, 3 h compound pre-incubation
T2 sequence (Q96P20 whole entry): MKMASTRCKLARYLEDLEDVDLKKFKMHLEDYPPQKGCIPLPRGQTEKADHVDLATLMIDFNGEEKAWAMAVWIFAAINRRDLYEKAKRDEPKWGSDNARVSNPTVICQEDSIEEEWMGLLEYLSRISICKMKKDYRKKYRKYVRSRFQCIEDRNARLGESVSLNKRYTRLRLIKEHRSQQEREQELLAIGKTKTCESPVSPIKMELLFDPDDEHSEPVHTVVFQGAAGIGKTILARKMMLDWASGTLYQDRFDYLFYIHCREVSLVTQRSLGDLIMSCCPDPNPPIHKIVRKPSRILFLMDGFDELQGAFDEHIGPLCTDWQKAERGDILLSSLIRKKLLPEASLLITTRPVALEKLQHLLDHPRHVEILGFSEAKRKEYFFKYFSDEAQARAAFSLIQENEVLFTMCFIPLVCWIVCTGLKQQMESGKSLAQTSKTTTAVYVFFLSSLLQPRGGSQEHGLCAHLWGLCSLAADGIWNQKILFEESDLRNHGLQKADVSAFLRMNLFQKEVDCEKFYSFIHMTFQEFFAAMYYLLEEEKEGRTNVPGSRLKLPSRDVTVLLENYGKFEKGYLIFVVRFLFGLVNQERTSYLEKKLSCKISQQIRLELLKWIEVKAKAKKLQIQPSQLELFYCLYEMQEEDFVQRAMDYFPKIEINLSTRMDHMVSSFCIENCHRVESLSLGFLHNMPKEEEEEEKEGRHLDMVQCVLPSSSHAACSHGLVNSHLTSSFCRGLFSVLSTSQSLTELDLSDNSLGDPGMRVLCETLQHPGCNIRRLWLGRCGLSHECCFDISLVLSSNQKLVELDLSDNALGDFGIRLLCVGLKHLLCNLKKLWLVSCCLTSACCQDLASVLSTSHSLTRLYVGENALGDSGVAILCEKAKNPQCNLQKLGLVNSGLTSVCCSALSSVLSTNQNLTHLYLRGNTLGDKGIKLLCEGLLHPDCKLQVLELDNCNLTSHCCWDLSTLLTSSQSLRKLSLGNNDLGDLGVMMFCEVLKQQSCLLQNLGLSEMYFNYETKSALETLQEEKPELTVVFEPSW
Method: Therefore, it is anticipated that inhibitors of NLRP3 will block pyroptosis, as well as the release of pro-inflammatory cytokines (e.g. IL-1β) from the cell.
THP-1 Cells: Culture and Preparation
The cells were routinely passaged and grown to confluency (~10^6cells/ml). On the day of the experiment, THP-1 cells were harvested and resuspended into RPMI medium (without FBS). […] To this diluted cell solution was added LPS (Sigma #L4524) to give a 1 μg/ml Final Assay Concentration (FAC). 40 μl of the final preparation was aliquoted into each well of a 96-well plate. The plate thus prepared was used for compound screening.
THP-1 Cells Pyroptosis Assay
The following method step-by-step assay was followed for compound screening.
(§1) Incubate for 3 hours at 37 °C, 5% CO2
Add 5 μl nigericin (Sigma #N7143) (FAC 5 μM) to all wells
(§2) Incubate for 1 hr at 37 °C, 5% CO2
At the end of the incubation period, spin plates at 300×g for 3 mins and remove supernatant
Then add 50 μl of resazurin (Sigma #R7017) (FAC 100 μM resazurin in RPMI medium without FBS) and incubate plates for a further 1-2 hours at 37 °C and 5% CO2
(§3) IC50 data is fitted to a non-linear regression equation (log inhibitor vs response-variable slope 4-parameters)

NLRP3 [3] = target: T2, NLRP3; parameters: THP-1 cells (ATCC #TIB-202) were grown in RPMI; endogenous in cells; host or cells: THP-1 cells (ATCC TIB-202); settings: cited from earlier work
NLRP3 [4] = target: T2, NLRP3; assay: Human whole blood IL-1β release assay (LPS, nigericin; AlphaLISA); format: cell-based; parameters: Human whole blood in Li-heparin tubes was obtained from healthy donors from a volunteer donor panel; from tissue; host or cells: human whole blood from healthy volunteer donors; settings: 1 μg/ml LPS, 10 μM nigericin, 3 h compound pre-incubation
Method: Human Whole Blood IL-1β Release Assay
For systemic delivery, the ability to inhibit NLRP3 when the compounds are present within the bloodstream is of great importance. For this reason, the NLRP3 inhibitory activity of a number of compounds in human whole blood was investigated in accordance with the following protocol.
Human whole blood in Li-heparin tubes was obtained from healthy donors from a volunteer donor panel.
as §1
Add 10 μl nigericin (Sigma #N7143) (10 μM FAC) to all wells
as §2
At the end of the incubation period, spin plates at 300×g for 5 mins to pellet cells and remove 20 μl of supernatant and add to 96-well v-bottom plates for IL-1β analysis (note: these plates containing the supernatants can be stored at −80 °C to be analysed at a later date)
IL-1β was measured according to the manufacturer protocol (Perkin Elmer-AlphaLisa IL-1 Kit AL220F-5000)
as §3

| Compound | IC50 (NLRP3 [2]) [nM] | IC50 (NLRP3 [4]) [nM] | further results |
| --- | --- | --- | --- |
| anakinra: recombinant IL-I receptor antagonist | – | – | success in the treatment of CAPS (CAPS): proven successful in the treatment of CAPS |
| COc1ccc(Cl)cc1C(=O)NCCc1ccc(S(=O)(=O)NC(=O)NC2CCCCC2)cc1 [Glyburide] | – | – | inhibition of IL-1β production in response to the activation of NLRC4 (NLRC4): not NLRC4; inhibition of IL-1β production in response to the activation of NLRP1 (NLRP1): not NLRC4 or NLRP1 |
| Oc1c(-c2nnc(N[C@H]3CCCC[C@@H]3O)c3cnccc23)ccc2c1CCO2 (relative stereo) [Example 2B, 5-[4-[[rel-(1S,2S)-2-Hydroxycyclohexyl]amino]pyrido[3,4-d]pyridazin-1-yl]-2,3-dihydrobenzofuran-4-ol] | – | – | IC20 [1]: > 10 µM |
| Fc1c[nH]c2cc(-c3nnc(NCC4CCOC4)c4cnccc34)ccc12 (single isomer, unassigned) [Example 4B] | 211 | – | – |
| C=C1C(=O)O[C@@H]2[C@H]3O[C@]3(C)CC/C=C(\C)CC[C@@H]12 [parthenolide] | – | – | NLRP3 inhibition, potency (NLRP3 [3]): limited potency; NLRP3 inhibition, specificity (NLRP3 [3]): nonspecific |
| Oc1c(-c2nnc(N[C@H]3CC[C@@H](O)CC3)c3cnccc23)ccc2c1CCO2 [Example 11, cis-5-[4-[(4-Hydroxycyclohexyl)amino]pyrido[3,4-d]pyridazin-1-yl]-2,3-dihydrobenzofuran-4-ol] | 57 | 51 | – |
| C[S+](C)[O-] [dimethyl sulfoxide (DMSO), dimethyl sulfoxide] | – | – | NLRP3 inhibition, potency (NLRP3 [3]): limited potency; NLRP3 inhibition, specificity (NLRP3 [3]): nonspecific |
| Oc1c(-c2nnc(N[C@@H]3CCOC[C@@H]3O)c3cnccc23)ccc2c1CCO2 [Example 15, 5-[4-[[(3R,4R)-3-Hydroxytetrahydropyran-4-yl]amino]pyrido[3,4-d]pyridazin-1-yl]-2,3-dihydrobenzofuran-4-ol] | – | – | IC20 [1]: > 10 µM |
| Oc1c(-c2nnc(NCC3CCOC3)c3cnccc23)ccc2c1CCO2 (single isomer, unassigned) [Example 5A] | 29 | 32 | – |
| O[C@@H]1CCCC[C@H]1Nc1nnc(-c2ccc3cc[nH]c3c2)c2ccncc12 (racemic) [Example 3, rac-(1R,2R)-2-[[1-(1H-Indol-6-yl)pyrido[3,4-d]pyridazin-4-yl]amino]cyclohexanol] | 99 | 108 | – |
| Oc1c(-c2nnc(NCC3CCCO3)c3cnccc23)ccc2c1CCO2 (single isomer, unassigned) [Example 6A] | 58 | 47 | – |
| Oc1c(-c2nnc(N[C@H]3CC[C@H](O)CC3)c3cnccc23)ccc2c1CCO2 [Example 9, trans-5-[4-[(4-Hydroxycyclohexyl)amino]pyrido[3,4-d]pyridazin-1-yl]-2,3-dihydrobenzofuran-4-ol] | 56 | 43 | – |
| Oc1c(-c2nnc(NCC3CCOC3)c3cnccc23)ccc2c1CCO2 (single isomer, unassigned) [Example 5B] | 64 | 36 | – |
| COCc1cc2c(c(O)c1-c1nnc(N[C@@H]3CCCC[C@H]3O)c3cnccc13)CCO2 [Example 8, 5-[4-[[(1R,2R)-2-Hydroxycyclohexyl]amino]pyrido[3,4-d]pyridazin-1-yl]-6-(methoxymethyl)-2,3-dihydrobenzofuran-4-ol] | 21 | – | – |
| Oc1c(-c2nnc(NCC3CCOC3)c3cnccc23)ccc2c1CCO2 (racemic) [Example 5, 5-[4-[[rac-(3S)-Tetrahydrofuran-3-yl]methylamino]pyrido[3,4-d]pyridazin-1-yl]-2,3-dihydrobenzofuran-4-ol] | 38 | 37 | – |
| O=[N+]([O-])C=Cc1ccc2c(c1)OCO2 [3,4-methylenedioxy-β-nitrostyrene] | – | – | NLRP3 inhibition, potency (NLRP3 [3]): limited potency; NLRP3 inhibition, specificity (NLRP3 [3]): nonspecific |
| Oc1c(-c2nnc(NCC3CCCO3)c3cnccc23)ccc2c1CCO2 (single isomer, unassigned) [Example 6B] | 63 | 59 | – |
| rilonacept | – | – | success in the treatment of CAPS (CAPS): proven successful in the treatment of CAPS |
| Fc1c[nH]c2cc(-c3nnc(NCC4CCOC4)c4cnccc34)ccc12 (single isomer, unassigned) [Example 4A] | 134 | – | – |
| canakinumab: neutralizing IL-1β antibody | – | – | success in the treatment of CAPS (CAPS): proven successful in the treatment of CAPS |
